Data set [1] is described as follows: Resazurin cell growth inhibition assay, normal fibroblast cells. Format: cell-based. As to conditions: M ± SEM of three independent experiments, read-out: Cytotoxic activity IC50, Fibroblast. The source says: (§1) All compounds 2a-e, 3a-d, and PPAD’s 4a-t were subjected to a screening system for evaluation of their anticancer activity against cell line of human cancer, namely liver (HepG2 and Huh-7) cancer and normal fibroblast cells obtained from the German Cancer Research Center (DKFZ), following the Resazurin Cell Growth Inhibition Assay[45] in comparison to the standard treatment using DOX (see Supplementary).
(§2) Cell culture and treatment
(§3) All reagents were handled in a sterile fume hood. DMEM medium, and fetal bovine serum (FBS) were purchased from Gibco;phosphate-buffered saline pH 7.4 (PBS) and trypsin-EDTA were obtained from Sigmae Aldrich. Alamar Blue or Resazurin (Promega,Mannheim, Germany) reduction assay was used to assess the cytotoxicity of the studied samples. The growth medium (DMEMmedium with 10% FBS, 10 0 U/mL penicillin, and 10 0 mg/L streptomycin), and alamar blue were stored at 48 C, while trypsineEDTA and FBS were stored frozen at 208C and thawed before use; PBS was stored at room temperature. The Hep-G2, Huh-7 and normal fibroblast cells were obtained from the German Cancer Research Center (DKFZ).Cells were cultured in 50 cm2 culture flask s (Corning) using DMEM medium supplemented with 10% FBS, penicillin (10 0 IU/mL), and streptomycin ([…]). The culture was maintained at 37 C atmosphere of 5% CO2 and 95% relative humidity. The cells were transferred to a new fl ask every 2 days and treated with trypsineEDTA to detach them from the flask . Cells were counted under a microscope using a hemacytometer (Hausser Scientific).Cell solutions were diluted with growth medium to a concentration of 1 *10^5 cells/mL and transferred to a 96-well plate, and treated with gradient concentrations of test compounds.
(§4) Resazurin cell growth inhibition assay
(§5) Alamar Blue or Resazurin (Promega, Mannheim, Germany) reduction assay was used to assess the cytotoxicity of the studied samples. The assay tests cellular viability and mitochondrial function. Briefly y, adherent cells were grown in tissue culture flask s, and then harvested by treating the fl asks with 0.025% trypsin and0.25 mM EDTA for 5 min. Once detached, cells were washed, counted and an aliquot (5 * 103cells) was placed in each well of a96-well cell culture plate in a total volume of […]. Cells were allowed to attach overnight and then treated with samples. The final concentration of samples ranged from 0 to 10 0 mM. After 4 8 h,[…] Resazurin 0.01% w/v solution was added to each well and the plates were incubated at 37C for 1 -2 h. Fluorescence was measured on an automated 96-well Infinite M2000 ProTM plate reader (Tecan, Crailsheim, Germany) using an excit ation wave-length of 54 4 nm and an emission wavelength of 590 nm. Doxorubicin was used as positive control. Each assay was done at least three times, with two replicates each. The viability was compared based on a comparison with untreated cells. IC50(on cancer cells) were the concentration of sample required to inhibit 50% of the cell proliferation and were calculated from a calibration curve by a linear regression using Microsoft Excel
In general terms: Resazurin is reduced to fluorescent resorufin, in cell work by metabolically active cells.

In data set [2] the test system is caspase 3/7 activity in HepG2 cells. The experiment in a line: Caspase-Glo 3/7 assay, HepG2. Format: cell-based, human. The conditions noted are these: 24 h incubation; 2 IC50, IC50, ½ IC50; vs DMSO solvent control; p < .05, n = 3.
Source text: The influence of our test samples on caspase 3/7 activity in liver cancer cells (HepG2 cells) was detected using Caspase-Glo 3/7 Assay kit (Promega, Madison, WI) as previously described[45] (see Supplementary).
as §2, §3, §4
Alamar Blue or Resazurin (Promega, Mannheim, Germany) reduction assay was used to assess the cytotoxicity of the studied samples. The assay tests cellular viability and mitochondrial function. Briefly y, adherent cells were grown in tissue culture flask s, and then harvested by treating the fl asks with 0.025% trypsin and0.25 mM EDTA for 5 min. Once detached, cells were washed, counted and an aliquot (5 * 103cells) was placed in each well of a96-well cell culture plate in a total volume of […]. Cells were allowed to attach overnight and then treated with samples. The final concentration of samples ranged from 0 to 10 0 mM. […] Fluorescence was measured on an automated 96-well Infinite M2000 ProTM plate reader (Tecan, Crailsheim, Germany) using an excit ation wave-length of 54 4 nm and an emission wavelength of 590 nm. […]
The influence of our test samples on cas pase 3/7 activity in […] was detected using Caspase -Glo 3/7 Assay kit (Promega). […] Luminescence was measured using well Infinite M2000 Pro TM instrument (Tecan).Caspase 3/7 activity was expressed as percentage of the unt reated

Another data set relates to Huh-7 cell line. The experiment in a line: Resazurin cell growth inhibition assay, Huh-7. The format is cell-based, human. The conditions noted are these: Homo sapiens.
Source text: as §1, §2, §3, §4, §5

The subject of data set [3] is caspase 3/7 activity in Huh-7 cells. The experiment in a line: Caspase-Glo 3/7 assay, Huh-7. The format is cell-based, human. The conditions noted are these: 24 h incubation; 2 IC50, IC50, ½ IC50; vs DMSO solvent control; p < .05, n = 3.
For a further data set, the system named is HepG2 cell line. The experiment in a line: Resazurin cell growth inhibition assay, HepG2. Format: cell-based, human. The conditions noted are these: Homo sapiens.
Source text: as §1, §2, §3, §4, §5

The mark [4] stands for this setting: Huh-7, 48 h, resazurin assay, 48 h, M ± SEM of three independent experiments, read-out: Cytotoxic activity IC50, Huh-7 cell line.
[5] abbreviates: Huh-7, converted from μg/mL, read-out: IC50 against Huh-7 cell line, equivalent in μM.
Setting [6] is: HepG2, 48 h, resazurin assay, 48 h, M ± SEM of three independent experiments, read-out: Cytotoxic activity IC50, HepG2 cell line.
The mark [7] stands for this setting: HepG2, converted from μg/mL, read-out: IC50 against HepG2 cell line, equivalent in μM.

In brackets after ≈: the same amount, converted by molar mass. Where two headings read alike, the source gives them in different places.

In general, IC50 refers to the concentration at which inhibition is half-maximal. `N#Cc1c(-c2ccc(F)cc2)nc(N2N=C(c3c4ccccc4cc4ccccc34)CC2c2ccc(F)cc2)[nH]c1=O` (stereo not drawn) [Compound 4e, 2-[3-Anthracene-9-yl-5–(4-fluoro-phenyl)-4,5-dihydro-pyrazol-1-yl]-4–(4-fluoro-phenyl)-6-oxo-1,6-dihydro-pyrimidine-5-carbonitrile]: in data set [1], the IC50 at 48 h was found to be 24.1 ± 4.63 µg/mL (≈ 43.6 µM). Also, the “activation of caspase 3/7, HepG2 cell line” value (from here on “activation … HepG2 cell line”) in data set [2] was “significant increase”. The 50% inhibitory concentration (IC50) in the data set with Huh-7 cell line (setting [4]) is 6.13 ± 1.01 µg/mL; with Huh-7 cell line (setting [5]), 11.1 µM; in the data set on HepG2 cell line (setting [6]), 5.34 ± 0.21 µg/mL; in the data set on HepG2 cell line (setting [7]), 9.6 µM. The “activation of caspase 3/7, Huh-7 cell line” value (from here on “activation … Huh-7 cell line”) in data set [3] is on record as “significant increase”.

What is called melting point is the temperature of the solid-liquid transition. For `N#Cc1c(-c2c[nH]c3ccccc23)nc(N2N=C(c3c4ccccc4cc4ccccc34)CC2c2ccc(F)cc2)[nH]c1=O` (stereo not drawn) [Compound 4i, 2-[3-Anthracene-9-yl-5–(4-fluoro-phenyl)-4,5-dihydro-pyrazol-1-yl]-4-(1H-indol-3-yl)-6-oxo-1,6-dihydro-pyrimidine-5-carbonitrile], the melting point is 184 to 185 °C. For the same molecule, the IC50 at 48 h in data set [1] is 31.4 ± 2.07 µg/mL (≈ 54.7 µM). Besides, the “activation … HepG2 cell line” value in data set [2] is on record as “significant increase”. Further, the IC50 with Huh-7 cell line (setting [4]) came to 6.47 ± 0.41 µg/mL. Besides, the IC50 with Huh-7 cell line (setting [5]) amounted to 11.2 µM. Further, in data set [3], the “activation … Huh-7 cell line” value is “significant increase”. Also, the IC50 with HepG2 cell line (setting [6]) is 9.54 ± 1.24 µg/mL.

`N#Cc1c(-c2c[nH]c3ccccc23)nc(N2N=C(c3c4ccccc4cc4ccccc34)CC2c2c[nH]c3ccccc23)[nH]c1=O` (stereo not drawn) [Compound 4l, 2-[3-Anthracene-9-yl-5-(1H-indol-3-yl)-4,5-dihydro-pyrazol-1-yl]-4-(1H-indol-3-yl)-6-oxo–1,6-dihydro-pyrimidine-5-carbonitrile] came in with a melting point of 220 to 222 °C. Moreover, in data set [1], the IC50 at 48 h was 20.2 ± 3.18 µg/mL (≈ 34 µM). Further, the IC50 with Huh-7 cell line (setting [4]) came to 12.4 ± 1.75 µg/mL. In addition, in the data set on HepG2 cell line (setting [6]), the concentration for half-maximal inhibition (IC50) is 14.6 ± 2.12 µg/mL.

Consider `COc1cc(-c2nc(N3N=C(c4c5ccccc5cc5ccccc45)CC3c3ccc(F)cc3)[nH]c(=O)c2C#N)cc(OC)c1OC` (stereo not drawn) [Compound 4m, 2-[3-Anthracene-9-yl-5–(4-fluoro-phenyl)-4,5-dihydro-pyrazol-1-yl]-6-oxo-4–(3,4,5-trimethoxy-phenyl)-1,6-dihydro-pyrimidine-5-carbonitrile], for which the melting point lay within 148 to 150 °C. Besides, the IC50 at 48 h in data set [1] was found to be 24.1 ± 4.34 µg/mL (≈ 38.6 µM). Also, the “activation … HepG2 cell line” value in data set [2] is on record as “significant increase”. The concentration for half-maximal inhibition (IC50) in the data set on Huh-7 cell line (setting [4]) amounted to 7.5 ± 0.98 µg/mL. Further, in data set [3], the “activation … Huh-7 cell line” value was “significant increase”. The IC50 with HepG2 cell line (setting [6]) was 8.12 ± 1.82 µg/mL.

As to `COc1cc(-c2nc(N3N=C(c4c5ccccc5cc5ccccc45)CC3c3ccc(N(C)C)cc3)[nH]c(=O)c2C#N)cc(OC)c1OC` (stereo not drawn) [Compound 4n, 2-[3-Anthracene-9-yl-5–(4-dimethylamino-phenyl)-4,5-dihydro-pyrazol-1-yl]-6-oxo-4–(3,4,5-trimethoxy-phenyl)-1,6-dihydro-pyrimidine-5-carbonitrile], the melting point was in the range of 170 to 172 °C. Besides, the IC50 at 48 h in data set [1] was determined as 18.6 ± 3.17 µg/mL (≈ 28.5 µM). For the same molecule, the IC50 in the data set on Huh-7 cell line (setting [4]) was determined as 9.54 ± 2.16 µg/mL. In addition, in the data set with HepG2 cell line (setting [6]), the IC50 stood at 9.66 ± 1.31 µg/mL.

Molecule `COc1cc(-c2nc(N3N=C(c4c5ccccc5cc5ccccc45)CC3c3cc(OC)c(OC)c(OC)c3)[nH]c(=O)c2C#N)cc(OC)c1OC` (stereo not drawn) [Compound 4o, 2-[3-Anthracene-9-yl-5–(3,4,5-trimethoxy-phenyl)-4,5-dihydro-pyrazol-1-yl]-6-oxo-4–(3,4,5-trimethoxy-phenyl)-1,6-dihydro-pyrimidine-5-carbonitrile] returned a melting point of 165 to 166 °C. Further, in data set [1], the IC50 at 48 h turned out to be 28.1 ± 3.31 µg/mL (≈ 40.2 µM). The half-inhibitory concentration (IC50) in the data set with Huh-7 cell line (setting [4]) was 14.5 ± 1.24 µg/mL. The IC50 in the data set on HepG2 cell line (setting [6]) was 10.2 ± 1.02 µg/mL.

`CN(C)c1ccc(-c2nc(N3N=C(c4c5ccccc5cc5ccccc45)CC3c3ccc(F)cc3)[nH]c(=O)c2C#N)cc1` (stereo not drawn) [Compound 4q, 2-[3-Anthracene-9-yl-5–(4-fluoro-phenyl)-4,5-dihydro-pyrazol-1-yl]-4–(4-dimethylamino-phenyl)-6-oxo-1,6-dihydro-pyrimidine-5-carbonitrile] gave a melting point of 182 to 184 °C. Further, in data set [1], the IC50 at 48 h amounted to 34.3 ± 6.42 µg/mL (≈ 59.3 µM). Moreover, the “activation … HepG2 cell line” value in data set [2] is “significant increase”. The IC50 in the data set with Huh-7 cell line (setting [4]) came to 8.66 ± 1.52 µg/mL. The “activation … Huh-7 cell line” value in data set [3] is “significant increase”. In the data set with HepG2 cell line (setting [6]), the IC50 amounted to 6.85 ± 0.85 µg/mL. For the same molecule, the half-maximal inhibitory concentration (IC50) with HepG2 cell line (setting [7]) came to 11.8 µM.

On to `CN(C)c1ccc(-c2nc(N3N=C(c4c5ccccc5cc5ccccc45)CC3c3ccc(N(C)C)cc3)[nH]c(=O)c2C#N)cc1` (stereo not drawn) [Compound 4r, 2-[3-Anthracene-9-yl-5–(4-dimethylamino-phenyl)-4,5-dihydro-pyrazol-1-yl]-4–(4-dimethylamino-phenyl)-6-oxo-1,6-dihydro-pyrimidine-5-carbonitrile], for which the melting point was 174 to 175 °C. Also, the IC50 at 48 h in data set [1] was determined as 25.2 ± 5.24 µg/mL (≈ 41.8 µM). Besides, the IC50 in the data set with Huh-7 cell line (setting [4]) came out at 7.61 ± 0.21 µg/mL. Moreover, the 50% inhibitory concentration (IC50) with HepG2 cell line (setting [6]) was found to be 8.44 ± 1.1 µg/mL.

Consider `COc1cc(C2CC(c3c4ccccc4cc4ccccc34)=NN2c2nc(-c3ccc(N(C)C)cc3)c(C#N)c(=O)[nH]2)cc(OC)c1OC` (stereo not drawn) [Compound 4s, 2-[3-Anthracene-9-yl-5–(3,4,5-trimethoxy-phenyl)-4,5-dihydro-pyrazol-1-yl]-4–(4-dimethylamino-phenyl)-6-oxo-1,6-dihydro-pyrimidine-5-carbonitrile], for which the melting point fell in the range of 160 to 162 °C. Also, in data set [1], the IC50 at 48 h is 20.3 ± 4.15 µg/mL (≈ 31.2 µM). Further, the IC50 in the data set on Huh-7 cell line (setting [4]) came out at 11.3 ± 0.61 µg/mL. For the same molecule, the IC50 with HepG2 cell line (setting [6]) turned out to be 8.66 ± 1.44 µg/mL.

With `CN(C)c1ccc(-c2nc(N3N=C(c4c5ccccc5cc5ccccc45)CC3c3c[nH]c4ccccc34)[nH]c(=O)c2C#N)cc1` (stereo not drawn) [Compound 4t, 2-[3-Anthracene-9-yl-5-(1H-indol-3-yl)-4,5-dihydro-pyrazol-1-yl]-4–(4-dimethylamino-phenyl)-6-oxo-1,6-dihydro-pyrimidine-5-carbonitrile], the melting point is 190 to 191 °C. In addition, the concentration for half-maximal inhibition (IC50) at 48 h in data set [1] was 23.5 ± 3.82 µg/mL (≈ 39.2 µM). The IC50 in the data set with Huh-7 cell line (setting [4]) is 7.42 ± 1.48 µg/mL. For the same molecule, the IC50 with HepG2 cell line (setting [6]) came out at 9.21 ± 1.05 µg/mL.

For the origin of these results see PMC6537702, “Design, synthesis, molecular modelling, and biological evaluation of novel substituted pyrimidine derivatives as potential anticancer agents for hepatocellular carcinoma” (Journal of Enzyme Inhibition and Medicinal Chemistry, 2019).
